Numbered stars: 1 amine (or outer) side, 2 acyl side, 3 side chain; on linkers, the order of the positions; unused ones are H or OH. Bridge positions count the residues as written; N and C are the ends. Square brackets hold non-standard residues; d marks the D form. Side chains are listed from the residue outwards. Peptide text beside a SMILES is read from it. * marks the point of attachment. C20 diacid = O=C(O)CCCCCCCCCCCCCCCCCCC(=O)*; C18 diacid = O=C(O)CCCCCCCCCCCCCCCCC(=O)*; γGlu = O=C(O)[C@H](CCC(=O)[*:2])N[*:1]; Hyp = O=C(O)[C@@H]1C[C@@H](O)CN1; AEEA = NCCOCCOCC(=O)O
Legend:
human amylin receptor = biological target: T1, human amylin receptor (Homo sapiens, UniProt O60896+P30988); experiment: Luciferase assay of amylin derivatives in amylin receptor/CRE-luc CHO cell line; assay type: cell-based; conditions: CHO-K1/Ga15/AMY3 CRE-luc cells, 24 hours incubation, F12 medium containing 10% FBS; read-out: EC50
T1 construct: host or cells: CHO-K1/Ga15/AMY3 cells, further stably transfected with a CRE-luciferase plasmid
T1 sequence (P30988 25-474): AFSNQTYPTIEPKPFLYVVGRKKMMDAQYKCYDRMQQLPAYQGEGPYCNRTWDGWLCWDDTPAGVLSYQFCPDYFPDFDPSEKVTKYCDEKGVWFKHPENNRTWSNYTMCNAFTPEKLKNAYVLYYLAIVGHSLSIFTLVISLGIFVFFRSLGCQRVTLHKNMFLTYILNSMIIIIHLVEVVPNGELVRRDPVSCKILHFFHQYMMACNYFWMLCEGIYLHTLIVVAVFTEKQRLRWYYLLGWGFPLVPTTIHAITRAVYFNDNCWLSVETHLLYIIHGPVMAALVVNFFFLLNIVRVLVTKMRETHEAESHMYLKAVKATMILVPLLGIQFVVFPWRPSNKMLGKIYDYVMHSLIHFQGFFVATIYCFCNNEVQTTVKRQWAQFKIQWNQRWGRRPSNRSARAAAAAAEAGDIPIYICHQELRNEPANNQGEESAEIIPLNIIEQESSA
T1 sequence (O60896 24-148 partner): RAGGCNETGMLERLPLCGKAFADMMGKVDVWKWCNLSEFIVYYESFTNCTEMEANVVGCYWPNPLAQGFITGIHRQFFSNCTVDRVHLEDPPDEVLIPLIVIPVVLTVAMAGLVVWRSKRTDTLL
Procedure: The experiment was intended to detect the activity or efficacy of the amylin derivatives on a human amylin receptor in vitro by luciferase assay.
50 μL of growth medium (F12 medium containing 10% FBS) was added into each well of a white 96-well plate, and the stably transfected amylin/CRE-lue CHO cells were inoculated into the white 96-well plate at a density of about 20,000 cells/well for activity determination.

[1] = Freeze-thaw stability of derivatives (freeze-thaw yield by liquid chromatography); assay type: physicochemical; conditions: for Dissolution property: appearance after dissolution at 0.2 mg/ml in 20 mM phosphate buffer solution (PB) (pH 7.0); for Freeze storage property: appearance after overnight storage at −20° C. and thawing to room temperature, 0.2 mg/ml in 20 mM PB (pH 7.0); for Freeze storage yield: concentration of polypeptide after freezing and thawing / concentration before, by liquid chromatography, −20° C. overnight
Outline: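 Freeze-thaw yield is the ratio of peptide concentration after versus before one overnight −20° C freeze and room-temperature thaw, both quantified by RP-HPLC of supernatant after centrifugation. Samples were 0.2 mg/ml freeze-dried derivative in 20 mM PB, pH 7.0.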

Row | SMILES | EC50 (human amylin receptor) [nM] | Dissolution property [1] | Freeze storage property [1] | Freeze storage yield [1] [%]
1 | CC[C@H](C)[C@H](NC(=O)[C@@H]1CCCN1C(=O)CNC(=O)[C@H](CC(C)C)NC(=O)[C@H](CC(N)=O)NC(=O)[C@H](CC(N)=O)NC(=O)[C@H](CCCCNC(=O)CC[C@H](NC(=O)CCCCCCCCCCCCCCCCCCC(=O)O)C(=O)O)NC(=O)[C@H](CO)NC(=O)[C@H](Cc1c[nH]cn1)NC(=O)[C@H](CCCNC(=N)N)NC(=O)[C@H](CC(C)C)NC(=O)[C@H](Cc1ccccc1)NC(=O)[C@H](CC(=O)O)NC(=O)[C@H](C)NC(=O)[C@H](CC(C)C)NC(=O)[C@H](CCCNC(=N)N)NC(=O)[C@H](CCC(N)=O)NC(=O)[C@@H](NC(=O)[C@H](C)NC(=O)[C@@H]1CSSC[C@H](NC(=O)[C@@H](N)CCCNC(=N)N)C(=O)N[C@@H](CC(N)=O)C(=O)N[C@@H]([C@@H](C)O)C(=O)N[C@@H](C)C(=O)N[C@@H]([C@@H](C)O)C(=O)N1)[C@@H](C)O)C(=O)N[C@@H](CC(C)C)C(=O)N1CCC[C@H]1C(=O)N1CCC[C@H]1C(=O)N[C@H](C(=O)N[C@@H](CC(N)=O)C(=O)N[C@H](C(=O)NCC(=O)N[C@@H](CO)C(=O)N[C@@H](CC(N)=O)C(=O)N[C@H](C(=O)N1C[C@H](O)C[C@H]1C(N)=O)[C@@H](C)O)C(C)C)[C@@H](C)O [PD094] (H-RCNTATCATQRLADFLRHSK([γGlu-C20 diacid])NNLGPILPPTNVGSNT[Hyp]-NH2; disulfide 2-7 (inferred); N-terminus assumed) | 0.034 | Clear | Clear | 102.94
2 | CC[C@H](C)[C@H](NC(=O)[C@H](CCCCNC(=O)COCCOCCNC(=O)COCCOCCNC(=O)CC[C@H](NC(=O)CCCCCCCCCCCCCCCCCCC(=O)O)C(=O)O)NC(=O)CNC(=O)[C@H](CC(C)C)NC(=O)[C@H](CC(N)=O)NC(=O)[C@H](CC(N)=O)NC(=O)[C@H](CO)NC(=O)[C@H](CO)NC(=O)[C@H](Cc1c[nH]cn1)NC(=O)[C@H](CCCNC(=N)N)NC(=O)[C@H](CC(C)C)NC(=O)[C@H](Cc1ccccc1)NC(=O)[C@H](CC(=O)O)NC(=O)[C@H](C)NC(=O)[C@H](CC(C)C)NC(=O)[C@H](CCCNC(=N)N)NC(=O)[C@H](CCC(N)=O)NC(=O)[C@@H](NC(=O)[C@H](C)NC(=O)[C@@H]1CSSC[C@H](NC(=O)[C@@H](N)CCCNC(=N)N)C(=O)N[C@@H](CC(N)=O)C(=O)N[C@@H]([C@@H](C)O)C(=O)N[C@@H](C)C(=O)N[C@@H]([C@@H](C)O)C(=O)N1)[C@@H](C)O)C(=O)N[C@@H](CC(C)C)C(=O)N1CCC[C@H]1C(=O)N1CCC[C@H]1C(=O)N[C@H](C(=O)N[C@@H](CC(N)=O)C(=O)N[C@H](C(=O)NCC(=O)N[C@@H](CO)C(=O)N[C@@H](CC(N)=O)C(=O)N[C@H](C(=O)N1C[C@H](O)C[C@H]1C(N)=O)[C@@H](C)O)C(C)C)[C@@H](C)O [PD103] (H-RCNTATCATQRLADFLRHSSNNLGK([AEEA-AEEA-γGlu-C20 diacid])ILPPTNVGSNT[Hyp]-NH2; disulfide 2-7 (inferred); N-terminus assumed) | 0.033 | Clear | Clear | 98.68

Now those with a lower EC50 (human amylin receptor), led by results:

Row | EC50 (human amylin receptor) [nM] | Dissolution property [1] | Freeze storage property [1] | Freeze storage yield [1] [%] | SMILES
3 | 0.029 | Clear | Clear | 101.02 | CC[C@H](C)[C@H](NC(=O)[C@@H]1CCCN1C(=O)CNC(=O)[C@H](CC(C)C)NC(=O)[C@H](CC(N)=O)NC(=O)[C@H](CCCCNC(=O)COCCOCCNC(=O)CC[C@H](NC(=O)CCCCCCCCCCCCCCCCCCC(=O)O)C(=O)O)NC(=O)[C@H](CO)NC(=O)[C@H](CO)NC(=O)[C@H](Cc1c[nH]cn1)NC(=O)[C@H](CCCNC(=N)N)NC(=O)[C@H](CC(C)C)NC(=O)[C@H](Cc1ccccc1)NC(=O)[C@H](CC(=O)O)NC(=O)[C@H](C)NC(=O)[C@H](CC(C)C)NC(=O)[C@H](CCCNC(=N)N)NC(=O)[C@H](CCC(N)=O)NC(=O)[C@@H](NC(=O)[C@H](C)NC(=O)[C@@H]1CSSC[C@H](NC(=O)[C@@H](N)CCCNC(=N)N)C(=O)N[C@@H](CC(N)=O)C(=O)N[C@@H]([C@@H](C)O)C(=O)N[C@@H](C)C(=O)N[C@@H]([C@@H](C)O)C(=O)N1)[C@@H](C)O)C(=O)N[C@@H](CC(C)C)C(=O)N1CCC[C@H]1C(=O)N1CCC[C@H]1C(=O)N[C@H](C(=O)N[C@@H](CC(N)=O)C(=O)N[C@H](C(=O)NCC(=O)N[C@@H](CO)C(=O)N[C@@H](CC(N)=O)C(=O)N[C@H](C(=O)N1C[C@H](O)C[C@H]1C(N)=O)[C@@H](C)O)C(C)C)[C@@H](C)O [PD114] (H-RCNTATCATQRLADFLRHSSK([AEEA-γGlu-C20 diacid])NLGPILPPTNVGSNT[Hyp]-NH2; disulfide 2-7 (inferred); N-terminus assumed)
4 | 0.028 | Clear | Clear | 96.86 | CC[C@H](C)[C@H](NC(=O)[C@@H]1CCCN1C(=O)[C@H](CCCCNC(=O)COCCOCCNC(=O)CC[C@H](NC(=O)CCCCCCCCCCCCCCCCC(=O)O)C(=O)O)NC(=O)[C@H](CC(C)C)NC(=O)[C@H](CC(N)=O)NC(=O)[C@H](CC(N)=O)NC(=O)[C@H](CO)NC(=O)[C@H](CO)NC(=O)[C@H](Cc1c[nH]cn1)NC(=O)[C@H](CCCNC(=N)N)NC(=O)[C@H](CC(C)C)NC(=O)[C@H](Cc1ccccc1)NC(=O)[C@H](CC(=O)O)NC(=O)[C@H](C)NC(=O)[C@H](CC(C)C)NC(=O)[C@H](CCCNC(=N)N)NC(=O)[C@H](CCC(N)=O)NC(=O)[C@@H](NC(=O)[C@H](C)NC(=O)[C@@H]1CSSC[C@H](NC(=O)[C@@H](N)CCCNC(=N)N)C(=O)N[C@@H](CC(N)=O)C(=O)N[C@@H]([C@@H](C)O)C(=O)N[C@@H](C)C(=O)N[C@@H]([C@@H](C)O)C(=O)N1)[C@@H](C)O)C(=O)N[C@@H](CC(C)C)C(=O)N1CCC[C@H]1C(=O)N1CCC[C@H]1C(=O)N[C@H](C(=O)N[C@@H](CC(N)=O)C(=O)N[C@H](C(=O)NCC(=O)N[C@@H](CO)C(=O)N[C@@H](CC(N)=O)C(=O)N[C@H](C(=O)N1C[C@H](O)C[C@H]1C(N)=O)[C@@H](C)O)C(C)C)[C@@H](C)O [PD108] (H-RCNTATCATQRLADFLRHSSNNLK([AEEA-γGlu-C18 diacid])PILPPTNVGSNT[Hyp]-NH2; disulfide 2-7 (inferred); N-terminus assumed)
5 | 0.019 | Clear | Clear | 99.86 | CC[C@H](C)[C@H](NC(=O)[C@@H]1CCCN1C(=O)CNC(=O)[C@H](CC(C)C)NC(=O)[C@H](CC(N)=O)NC(=O)[C@H](CCCCNC(=O)COCCOCCNC(=O)COCCOCCNC(=O)CC[C@H](NC(=O)CCCCCCCCCCCCCCCCC(=O)O)C(=O)O)NC(=O)[C@H](CO)NC(=O)[C@H](CO)NC(=O)[C@H](Cc1c[nH]cn1)NC(=O)[C@H](CCCNC(=N)N)NC(=O)[C@H](CC(C)C)NC(=O)[C@H](Cc1ccccc1)NC(=O)[C@H](CC(=O)O)NC(=O)[C@H](C)NC(=O)[C@H](CC(C)C)NC(=O)[C@H](CCCNC(=N)N)NC(=O)[C@H](CCC(N)=O)NC(=O)[C@@H](NC(=O)[C@H](C)NC(=O)[C@@H]1CSSC[C@H](NC(=O)[C@@H](N)CCCNC(=N)N)C(=O)N[C@@H](CC(N)=O)C(=O)N[C@@H]([C@@H](C)O)C(=O)N[C@@H](C)C(=O)N[C@@H]([C@@H](C)O)C(=O)N1)[C@@H](C)O)C(=O)N[C@@H](CC(C)C)C(=O)N1CCC[C@H]1C(=O)N1CCC[C@H]1C(=O)N[C@H](C(=O)N[C@@H](CC(N)=O)C(=O)N[C@H](C(=O)NCC(=O)N[C@@H](CO)C(=O)N[C@@H](CC(N)=O)C(=O)N[C@H](C(=O)N1C[C@H](O)C[C@H]1C(N)=O)[C@@H](C)O)C(C)C)[C@@H](C)O [PD093] (H-RCNTATCATQRLADFLRHSSK([AEEA-AEEA-γGlu-C18 diacid])NLGPILPPTNVGSNT[Hyp]-NH2; disulfide 2-7 (inferred); N-terminus assumed)
